Our source for the IC50 values is patent US7507727B2, “Substituted quinobenzoxazine analogs and methods of using thereof” (Cylene Pharmaceuticals, Inc., priority 2003, dated 2009).

The first test addresses c-Myc template DNA (c-myc quadruplex). The test can be described thus: Quadruplex binding / stop assay (Taq polymerase arrest, capillary electrophoresis). The following applies: read-out: S DATA; Table 1D, stop assay data.
Turning to `CCN(CC)CCCC(C)NC(=O)c1cn2c3c(c(N4CCC(c5cnccn5)C4)c(F)cc3c1=O)Oc1cc3ccccc3cc1-2` (centres unmarked) [compound 1719], the IC50 was 3 µM.

Turning to `CN(C)CCCCNC(=O)c1cn2c3c(c(NCCCCN(C)C)ccc3c1=O)Oc1cc3ccccc3cc1-2` [compound 1544], the IC50 stood at 1.75 µM. On to `CN(C)CCCCNC(=O)c1cn2c3c(c(N4CCC(N)C4)c(F)cc3c1=O)Oc1ccccc1-2` (centres unmarked) [compound 1624], for which the IC50 was 0.75 µM.

In the case of `CCN(CC)CCCCNC(=O)c1cn2c3c(c(N4CCC(c5cnccn5)C4)c(F)cc3c1=O)Oc1ccc(Cl)cc1-2` (centres unmarked) [compound 1802], the IC50 was 4 µM. Take `NC1CCN(C(=O)c2cn3c4c(c(N5CCC(N)C5)c(F)cc4c2=O)Oc2ccccc2-3)C1` (centres unmarked) [compound 1622]: the IC50 was > 15 µM. Turning to `CC(CNC(=O)c1cn2c3c(c(N4CCC(N)C4)c(F)cc3c1=O)Oc1cc3ccccc3cc1-2)c1ccccc1` (centres unmarked) [compound 1695], the IC50 was > 15 µM. On to `C[N+]1([O-])CCC[C@@H]1CCNC(=O)c1cn2c3c(c(N4CCC(c5cnccn5)C4)c(F)cc3c1=O)Oc1cc3ccccc3cc1-2` (some centres unmarked) [compound 1766], for which the IC50 is 6.3 µM. As for `CN(C)CCCCNC(=O)c1cn2c3c(c(N4CCC(NC(=O)OC(C)(C)C)C4)c(F)cc3c1=O)Oc1ccccc1-2` (centres unmarked) [compound 1588], the IC50 was > 15 µM.

Regarding `NC1CCN(c2c(F)cc3c(=O)c(C(=O)NCC(O)c4ccccc4)cn4c3c2Oc2cc3ccccc3cc2-4)C1` (centres unmarked) [compound 1703], the IC50 is > 15 µM.

Still in this test, the particulars now being: read-out: Stop Data c-Myc μM; concentration at which 50% of the DNA was arrested (arrested:full-length 1:1).
In the case of `O=C(Nc1ccncc1)c1cn2c3c(c(NCCCN4CCOCC4)c(F)cc3c1=O)Oc1cc3c(cc1-2)oc1ccccc13` [compound 315], the IC50 is 1 µM. As for `CN1CCCC1CCNc1c(F)cc2c(=O)c(C(=O)N3CC[C@H](N)C3)cn3c4cc5c(cc4oc1c23)c(=O)c1ccccc15` (some centres unmarked) [compound 215], the IC50 worked out at 1.75 µM. In the case of `CC(C)(C)OC(=O)NC1CCN(c2c(F)c(N)c3c(=O)c(C(=O)O)cn4c3c2Oc2cc3ccccc3cc2-4)C1` (centres unmarked) [compound 15], the IC50 came out at 1.75 µM. With `CC(C)(C)OC(=O)NC1CCN(C(=O)c2cn3c4c(c(N5CCC(NC(=O)OC(C)(C)C)C5)c(F)c(N)c4c2=O)Oc2cc4ccccc4cc2-3)C1` (centres unmarked) [compound 227], the IC50 is 1.75 µM. Regarding `CN(C)CCCCNC(=O)c1cn2c3c(c(N4CC[C@@H](N)C4)c(F)cc3c1=O)Oc1c-2ccc2ccccc12` [compound 156], the IC50 came to 1.75 µM. Still for that read-out and setting: next, `O=C(NCCCN1CCOCC1)c1cn2c3cc4c(=O)c5ccccc5c(=O)c4cc3oc3c(NCCCN4CCOCC4)c(F)cc(c1=O)c32` [compound 166]: 1.75 µM; `CN(C)CCCNC(=O)c1cn2c3c(c(N4CCC(NC(=O)OC(C)(C)C)C4)c(F)cc3c1=O)Oc1cc3ccccc3cc1-2` (centres unmarked) [compound 242]: 1.75 µM. Turning to `CN(C)CCCCNc1c(F)cc2c(=O)c(C(=O)NCCN3CCOCC3)cn3c2c1Oc1c-3ccc2ccccc12` [compound 141], the IC50 was 1.75 µM. Turning to `CN1CCCC1CCNC(=O)c1cn2c3c(c(NCCCO)c(F)cc3c1=O)Oc1cc3ccccc3cc1-2` (centres unmarked) [compound 293], the IC50 worked out at 1.75 µM. In the case of `O=C(NCCN1CCCC1)c1cn2c3c(c(NCCN4CCCC4)c(F)cc3c1=O)Oc1c-2ccc2ccccc12` [compound 139], the IC50 was found to be 1.75 µM. Same read-out and setting: for `CN(C)CCCCNc1c(F)cc2c(=O)c(C(=O)N3CCN(C)CC3)cn3c2c1Oc1cc2c(cc1-3)oc1ccccc12` [compound 164] the value was 1.75 µM; for `CN(CCc1ccccn1)C(=O)c1cn2c3c(c(N4CC[C@@H](N)C4)c(F)cc3c1=O)Oc1c-2ccc2ccccc12` [compound 80], 2.5 µM; for `CN(C)CCCCNC(=O)c1cn2c3c(c(N4CC[C@@H](NC(=O)CCNCCN5CCOCC5)C4)c(F)cc3c1=O)Oc1cc3c(cc1-2)oc1ccccc13` [compound 405], 0.75 µM.

Regarding `CN1CCN(CCCNC(=O)c2cn3c4cc5c(=O)c6ccccc6c(=O)c5cc4oc4c(NCCC5CCCN5C)c(F)cc(c2=O)c43)CC1` (centres unmarked) [compound 165], the IC50 worked out at 1.75 µM.
